This assay deals with monoamine transmitters (NA, DA and 5-HT). Nature of the assay: In vivo brain microdialysis of monoamines in striatum and frontal cortex. The note with it: rats; for response vs control in vivo at 50 µmol/kg: Rattus norvegicus, sc. Further details: species or system rat. The source says: The microdialysis technique (See, for instance, Collin and Ungerstedt, Microdialysis: user's guide, Carnegie Medicin, Stockholm, 1988) is a well-established technique for measuring extracellular levels of neurotransmitters (Ungerstedt, J Int Med, 1991, 230; 365-73). The microdialysis technique was used to measure the effect of compounds disclosed herein upon the efflux of monoamine transmitters (NA, DA and 5-HT) in striatum and frontal cortex in conscious, freely moving rats.
Male Sprague-Dawley rats weighing 280-320 g were used throughout the experiments. Before the experiment the animals were housed in groups, maximum five animals in each cage, with free access to water and food. The animals were housed at least one week prior to surgery and use in the experiments.
A modified version (Waters et al., J Neural Transm Gen Sect, 1994, 98(1); 39-55) of the I-shaped probe (Santiago and Westerink, N-S Arch Pharmacol, 1990, 342; 407-14) with the AN69 polyacrylonitrile/sodium methyl sulfonate copolymer (HOSPAL; o.d/i.d. 310/220 μm: dialysis membrane (Gambro, Lund, Sweden) was used in the microdialysis experiments. In the dorsal striatum, probes with an exposed length of 3 mm of dialysis membrane were used and in the prefrontal cortex the corresponding length was 2.5 mm. The rats were operated under isoflurane inhalation anesthesia while mounted into a Kopf stereotaxic instrument. Coordinates were calculated relative to bregma; dorsal striatum AP+1.0, ML±2.6, DV 6.2; Pf cortex, AP 15+3.2, ML+1.2, DV −4.08°, according to Paxinos and Watson (New York, Academic Press, 1986; FIG. 8 and FIG. 14). The dialysis probe was positioned in a burr hole under stereotaxic guidance and cemented with phosphatine dental cement (DAB Dental).
The rats were housed individually in cages for 48 h before the dialysis experiments, allowing them to recover from surgery and minimizing the risk of drug interactions with the anesthetics during the following experiments. During this period the rats had free access to food and water.
On the day of the experiment the rats were connected to a micro-perfusion pump via a swivel and were replaced in the cage where they could move freely within its confinements. The perfusion medium was a Ringer's solution containing (in mmol/I): NaCl; 140, CaCl2; 1.2, KCl; 3.0, MgCl2; 1.0 (Moghaddam and Bunney. Neurochem., 1989, 53; 652-4). The pump was set to a perfusion speed of 2 μl/min and 40 μl sample volume were collected every 20 min.
The rats were perfused for at least 40 min before sampling began. Five fractions of each 20 min were collected and the last three were used for the establishment of the baseline. After collection of baseline fractions, the pharmacological challenge to the dialysis experiment started. Test compounds were administrated by injection (s.c.) in a volume of 5 ml/kg, with 0.9% NaCl (saline) as vehicle.
The analytical method were based on two chromatographic separations dedicated for amines or acids. Two chromatographic systems shared a common auto injector with a 10-port valve and two sample loops for simultaneous injection on the two systems.
The acids were separated by reversed phase chromatography while the amines were separated by reversed phase ion pairing chromatography preceded by a reverse phase separation in a column switching configuration. Three separation columns (Luna C18 (2), dp 3 μm, 2 mm i.d., Phenomenex) of different lengths were used. Electrochemical detection was accomplished on glassy carbon electrodes (MF-1000, Bioanalytical Systems, Inc.)
The aqueous mobile phase (0.6 ml/min) for the acid system contained citric acid (40 mM, dipotassium hydrogen phosphate 10 mM, methanol 8-11% (v/v) and EDTA 0.1 mM. Column length was 30 mm and detection potential relative to Ag/AgCl reference was 0.74V. […]

The mark [1] stands for this setting: 16.7 μmol/kg s.c., frontal cortex dialysate, Fumarate Salt.
[2] abbreviates: 16.7 μmol/kg s.c., striatum dialysate, Fumarate Salt.
The mark [3] stands for this setting: 50 μmol/kg s.c., striatum dialysate.
Where [4] appears, read: 50 μmol/kg s.c., frontal cortex dialysate, read-out: 5-HT FC ± SEM, maximum effect compared to baseline.
Setting [5] is: 50 μmol/kg s.c., frontal cortex dialysate, read-out: DA FC ± SEM, maximum effect compared to baseline.
Where [6] appears, read: 50 μmol/kg s.c., striatum dialysate, read-out: 5-HT Stri ± SEM, maximum effect compared to baseline.
Setting [7] is: 50 μmol/kg s.c., striatum dialysate, read-out: DA Stri ± SEM, maximum effect compared to baseline.
The mark [8] stands for this setting: 50 μmol/kg s.c., frontal cortex dialysate, read-out: NA FC ± SEM, maximum effect compared to baseline.

The structures appear in SMILES notation. Counter-ions that a name gives are not always drawn. Like-named read-outs stand apart in the source and are kept apart here. Marks after values point to notes of the source that are not given here.

The results in this text go back to patent publication US10087142B2, “Azetidine derivatives useful as modulators of cortical cathecolaminergic neurotransmission” (Integrative Research Laboratories Sweden AB, priority 2015, dated 2018).

For the compound `Fc1cc(F)cc(C(F)C2CNC2)c1.O=C(O)/C=C/C(=O)O` (single isomer, unassigned; (+)) [Example 4, (+)-3-[(3,5-Difluorophenyl)(Fluoro)Methyl]Azetidine Fumarate Salt], under setting [1], the “5-HT FC ± SEM, maximum effect compared to baseline” value is on record as 170^a percent of control; the “DA FC ± SEM, maximum effect compared to baseline” value is 226^a percent of control; the “NA FC ± SEM, maximum effect compared to baseline” value is reported as 198^a percent of control. Under setting [2], the “5-HT Stri ± SEM, maximum effect compared to baseline” value is 198^a percent of control; the “DA Stri ± SEM, maximum effect compared to baseline” value is reported as 116^a percent of control; the “NA Stri ± SEM, maximum effect compared to baseline” value was 122^a percent of control.
For the compound `Cl.Fc1ccc(C(F)C2CNC2)cc1F` (centres unmarked) [Example 5, 3-[(3,4-Difluorophenyl)(Fluoro)Methyl]Azetidine Hydrochloric Acid Salt], under setting [3], the “NA Stri ± SEM, maximum effect compared to baseline” value is listed as 480^a percent of control. For the same compound, the response vs control in vivo at 50 µmol/kg came out at 234% under setting [4], 330 ± 75% under setting [5], 435 ± 61% under setting [6] and 136 ± 4% under setting [7].
As to `Fc1cccc(F)c1C(F)C1CNC1` (centres unmarked) [Example 7, 3-[(2,6-Difluorophenyl)(Fluoro)Methyl]Azetidine Oxalate Salt], the response vs control in vivo at 50 µmol/kg reads like this: under setting [4], 404 ± 21%; under setting [5], 860 ± 283%; under setting [8], 570 ± 6%; under setting [6], 213%; under setting [7], 130%.
As to `Fc1ccc(C(F)C2CNC2)c(F)c1` (centres unmarked) [Example 8, 3-[(2,4-Difluorophenyl)(Fluoro)Methyl]Azetidine Oxalate Salt], the response vs control in vivo at 50 µmol/kg stood at 428 ± 118% under setting [4]; 549 ± 163% under setting [5]; 400 ± 28% under setting [8]; 402 ± 12% under setting [6]; 133 ± 15% under setting [7].
`Fc1cc(F)c(F)c(C(F)C2CNC2)c1.O=C(O)C(=O)O` (centres unmarked) [Example 9, 3-[Fluoro(2,3,5-Trifluorophenyl)Methyl]Azetidine Oxalate Salt]: the “NA Stri ± SEM, maximum effect compared to baseline” value under setting [3] is on record as 860^a percent of control. Also, the response vs control in vivo at 50 µmol/kg turned out to be 207 ± 21% under setting [4], 840 ± 122% under setting [8], 231 ± 106% under setting [6] and 127 ± 13% under setting [7].
Take `Fc1ccc(C(F)C2CNC2)c(F)c1F` (centres unmarked) [Example 11, 3-[Fluoro(2,3,4-Trifluorophenyl)Methyl]Azetidine Oxalate Salt]: the response vs control in vivo at 50 µmol/kg runs as follows: under setting [4], 236%; under setting [5], 263%; under setting [8], 342%; under setting [6], 366%; under setting [7], 85 ± 14%.
The corresponding values for `Fc1cc(C(F)C2CNC2)cc(F)c1F` (centres unmarked) [Example 12, 3-[Fluoro(3,4,5-Trifluorophenyl)Methyl]Azetidine Oxalate Salt] are 322 ± 4%, 252 ± 70%, 214 ± 28%, 359 ± 105% and 131%.
The corresponding values for `CCN1CC(C(F)c2cccc(F)c2F)C1` (centres unmarked) [Example 16, 3-[(2,3-Difluorophenyl)(Fluoro)Methyl]-1-Ethylazetidine Hydrochloric Acid Salt] are 197 ± 124%, 229 ± 23%, 272 ± 58%, 313 ± 23% and 139 ± 4%.
